Substitutions are numbered along the chain they refer to.
Experiments:
[1] = molecular target: T1, A3-YFP (Homo sapiens, UniProt P0DMS8); assay: Fluorescence-based competition binding assay with CA200645, A3-YFP; conditions: A3-YFP cells, 25 nM CA200645, 60 min, 37°C
T1 construct: cDNA encoding the full length human A3 receptor; expressed in transfected cells
T1 sequence (P0DMS8 1-318): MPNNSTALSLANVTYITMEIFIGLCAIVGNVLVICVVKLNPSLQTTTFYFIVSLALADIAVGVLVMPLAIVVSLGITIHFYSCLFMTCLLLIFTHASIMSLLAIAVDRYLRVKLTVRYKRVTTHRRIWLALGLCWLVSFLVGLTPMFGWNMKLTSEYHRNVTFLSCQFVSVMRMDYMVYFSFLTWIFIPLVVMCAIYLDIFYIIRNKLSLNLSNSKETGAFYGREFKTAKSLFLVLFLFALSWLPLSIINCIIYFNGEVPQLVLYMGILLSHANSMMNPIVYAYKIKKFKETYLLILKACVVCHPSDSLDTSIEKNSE
Method: (§1) On the day of analysis, normal growth medium was removed and cells washed once with HBSS pre-warmed to 37°C. […] Buffer was then removed from each well, cells washed once in HBSS and fresh HBSS added at room temperature. Plates were immediately imaged using an ImageXpress Ultra confocal plate reader, which captured four central images per well using a Plan Fluor 40× NA0.6 extra-long working distance objective. CA200645 was excited at 635 nm and emission collected through a 640–685 nm band pass filter. Total image intensity was obtained using a multiwave length cell scoring algorithm within MetaXpress software (Molecular Devices).
(§2) Time course experiments were fitted using a one phase association equation which is as follows [drawing 2] where Yo represents the level of internalization at time (t) equal to zero, Plateau is the maximal internalization at infinite time and K is the rate constant in […]. Statistical significance was determined by Student's unpaired t-test or by one-way ANOVA with Dunnett's post hoc analysis and P < 0.05 was considered statistically significant.

[2] = molecular target: T2, A3 W243F-YFP (Homo sapiens, UniProt P0DMS8, W243F); assay: ERK1/2 phosphorylation assay (AlphaScreen SureFire), A3 W243F-YFP; type: cell-based
T2 construct: Full length A3 W243F-YFP was excised and subcloned into a native pcDNA3.1 vector; expressed in transfected cells
T2 sequence (P0DMS8 1-318 W243F): T1 sequence (P0DMS8 1-318) with W243F
Method: Normal growth medium was replaced with serum-free medium for at least 4 h before analysis. Levels of ERK1/2 phosphorylation were measured using the AlphaScreen SureFire p-ERK assay kit (PerkinElmer). […] Medium was removed from each well and replaced with 40 μL SureFire lysis buffer. After shaking for 5 min, a 1:80:20:120 v v^−1 dilution of AlphaScreen beads : lysate : activation buffer : reaction buffer in a 5.5 μL total volume was transferred to a white opaque 384-well proxiplate in diminished light. After 2 h of incubation in the dark at room temperature, the fluorescence signal was measured with an EnVision plate reader (PerkinElmer) using standard AlphaScreen settings.
A basal and FSK control was included in each separate concentration-response CRE-SPAP gene transcription assay and cAMP accumulation assay to allow the responses in each cell line to be expressed as an inhibition of FSK-stimulated SPAP production.

[3] = molecular target: T2, A3 W243F-YFP; assay: Fluorescence-based competition binding assay with CA200645, A3 W243F-YFP; conditions: A3 W243F-YFP cells, 25 nM CA200645, 60 min, 37°C
Method: as §1, §2

Ki [1]: 33.1 nM
EC50 ([2]; A3 W243F-YFP cells, 5 min stimulation, read-out: pEC50 (pERK1/2 assay) (converted)): 19.5 nM
Emax ([2]; read-out: Maximum response (% 10 μM NECA), pERK1/2 assay): 16 ± 3.1%
Ki [3]: 45.7 nM
SMILES: CCCCC#Cc1nc(NC)c2ncn([C@@H]3O[C@H](CO)[C@@H](O)[C@H]3O)c2n1 [HEMADO, 2-(1-hexynyl)-N-methyladenosine]

From article PMC4128046, “Effect of a toggle switch mutation in TM6 of the human adenosine A3 receptor on Gi protein-dependent signalling and Gi-independent receptor internalization” (British Journal of Pharmacology, 2014)
